pEC50: −log10 of the molar value.
What follows are molecules tested against T1, human GPR119 (Homo sapiens, UniProt Q8TDV5) (assay: AlphaScreen cAMP assay in MIN6 cells stably transfected with human GPR119). Conditions: Min-6/hGPR119 cells, 45 min at room temperature.
T1 construct: expression vector for human GPR119 cDNA (Acc. No. NP_848566); expressed in transfected cells; Min-6/hGPR119
T1 sequence (Q8TDV5 1-335): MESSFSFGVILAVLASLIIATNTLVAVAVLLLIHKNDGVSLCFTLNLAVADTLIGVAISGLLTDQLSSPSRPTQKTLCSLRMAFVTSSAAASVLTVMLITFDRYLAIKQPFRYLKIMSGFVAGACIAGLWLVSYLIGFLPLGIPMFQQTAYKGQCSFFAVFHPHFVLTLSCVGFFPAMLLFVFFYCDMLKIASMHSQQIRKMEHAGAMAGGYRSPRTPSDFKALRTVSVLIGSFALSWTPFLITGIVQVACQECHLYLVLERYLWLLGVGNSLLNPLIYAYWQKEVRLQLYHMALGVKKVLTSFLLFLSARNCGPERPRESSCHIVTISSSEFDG
Format: cell-based
Experimental: The compounds of formula I according to the invention modulate the activity of the G-protein-coupled receptor GPR119. The effect of the compounds on the activation of GPR119 and on the stimulation of intracellular cAMP concentration is determined using the AlphaScreen cAMP Assay Kit (Cat. No. #6760625R) made by PerkinElmer.
MIN6 cells [Miyazaki J et al. Endocrinology. 1990 July; 127(1):126-32] are stably transfected with an expression vector for human GPR119 cDNA (Acc. No. NP_848566). Min-6/hGPR119 cells are cultured in DMEM, 10% FBS, 50 μM β-mercaptoethanol, 0.3 mg/mL Geniticin, 2 mM GlutaMAX at 37° C. 5% CO2. For the assay, the cells are seeded in Optiplates (white, 384-well, 160 W—barcoded, TC, sterile with lid, Cat. No. #6007688 (Perkin Elmer); 10000 cells/well; 50 μl). The plates covered with lids are then incubated for 24 hours at 37° C./5% CO2. After the medium is aspirated from the wells completely, 10 μl of the test compound are added, the compounds are diluted using stimulating buffer (140 mM NaCl, 3.6 mM KCl, 0.5 mM NaH2PO4, 0.5 mM MgSO4, 1.5 mM CaCl2, 10 mM Hepes, 5 mM NaHCO3; pH 7.4. 0.5 mM IBMX and 0.1% BSA, the final DMSO concentration is 1%). After 45 minutes incubation at room temperature (approx. 20° C.), the cAMP concentrations are determined using the AlphaScreen cAMP Assay Kit (Cat. No. #6760625R from PerkinElmer).
Molecule CC(C)(C)OC(=O)N1CCC(N(C(=O)c2cnc(-c3ccc(C(=O)NC[C@H]4CCCC[C@H]4O)c(F)c3)nc2)C2CC2)CC1 (stereo in doubt) [Example 168, 4-[Cyclopropyl-(2-{3-fluoro-4-[(2-hydroxy-cyclohexylmethyl)-carbamoyl]-phenyl}-pyrimidine-5-carbonyl)-amino]-piperidine-1-carboxylic acid tert-butyl ester] has a pEC50 of 6.58.
For CC(C)(C)OC(=O)N1CCC(N(C(=O)c2ccc(-c3ccc(S(C)(=O)=O)cc3)nc2)C2CC2)CC1 [Example 1, 4-{Cyclopropyl-[6-(4-methanesulfonyl-phenyl)-pyridine-3-carbonyl]-amino}-piperidine-1-carboxylic acid tert-butyl ester], the pEC50 was 7.09.
Work on CC(C)OC(=O)N1CCC(N(C(=O)c2ccc(-c3ccc(S(C)(=O)=O)cc3)nc2)C2CC2)CC1 [Example 2, 4-{Cyclopropyl-[6-(4-methanesulfonyl-phenyl)-pyridine-3-carbonyl]-amino}-piperidine-1-carboxylic acid isopropyl ester] yielded a pEC50 of 6.67.
CC(C)(C)OC(=O)N1CCC(N(C(=O)c2ccc(-c3cn[nH]c3)nc2)C2CC2)CC1 [Example 3, 4-{Cyclopropyl-[6-(1H-pyrazol-4-yl)-pyridine-3-carbonyl]-amino}-piperidine-1-carboxylic acid tert-butyl ester] showed a pEC50 of 6.69.
With Cn1cc(-c2ccc(C(=O)N(C3CC3)C3CCN(C(=O)OC(C)(C)C)CC3)cn2)ccc1=O [Example 4, 4-[Cyclopropyl-(1′-methyl-6′-oxo-1′,6′-dihydro-[2,3′]bipyridinyl-5-carbonyl)-amino]-piperidine-1-carboxylic acid tert-butyl ester] the pEC50 was 5.84.
CC(C)(C)OC(=O)N1CCC(N(C(=O)c2ccc(-c3cnco3)nc2)C2CC2)CC1 [Example 5, 4-[Cyclopropyl-(6-oxazol-5-yl-pyridine-3-carbonyl)-amino]-piperidine-1-carboxylic acid tert-butyl ester] gave a pEC50 of 7.21.
For CC(C)(C)OC(=O)N1CCC(N(C(=O)c2ccc(-c3cnco3)nn2)C2CC2)CC1 [Example 6, 4-[Cyclopropyl-(6-oxazol-5-yl-pyridazine-3-carbonyl)-amino]-piperidine-1-carboxylic acid tert-butyl ester], the pEC50 was 5.89.
Molecule CC(C)(C)OC(=O)N1CCC(N(C(=O)c2ncc(-c3cnco3)cn2)C2CC2)CC1 [Example 7, 4-[Cyclopropyl-(5-oxazol-5-yl-pyrimidine-2-carbonyl)-amino]-piperidine-1-carboxylic acid tert-butyl ester] has a pEC50 of 5.92.
Molecule CC(C)(C)OC(=O)N1CCC(N(C(=O)c2ccc(-c3cnco3)cn2)C2CC2)CC1 [Example 8, 4-[Cyclopropyl-(5-oxazol-5-yl-pyridine-2-carbonyl)-amino]-piperidine-1-carboxylic acid tert-butyl ester] has a pEC50 of 6.92.
With CC(C)(C)OC(=O)N1CCC(N(C(=O)c2cnc(-c3cnco3)nc2)C2CC2)CC1 [Example 9, 4-[Cyclopropyl-(2-oxazol-5-yl-pyrimidine-5-carbonyl)-amino]-piperidine-1-carboxylic acid tert-butyl ester] the pEC50 was 6.65.
With Cc1cc(C(=O)N(C2CC2)C2CCN(C(=O)OC(C)(C)C)CC2)cnc1-c1cnco1 [Example 10, 4-[Cyclopropyl-(5-methyl-6-oxazol-5-yl-pyridine-3-carbonyl)-amino]-piperidine-1-carboxylic acid tert-butyl ester] the pEC50 was 6.13.
Molecule Cc1noc(C)c1-c1ccc(C(=O)N(C2CC2)C2CCN(C(=O)OC(C)(C)C)CC2)cn1 [Example 11, 4-{Cyclopropyl-[6-(3,5-dimethyl-isoxazol-4-yl)-pyridine-3-carbonyl]-amino}-piperidine-1-carboxylic acid tert-butyl ester] has a pEC50 of 6.87.
CC(C)(C)OC(=O)N1CCC(N(C(=O)c2cnc(-c3cnco3)cn2)C2CC2)CC1 [Example 12, 4-[Cyclopropyl-(5-oxazol-5-yl-pyrazine-2-carbonyl)-amino]-piperidine-1-carboxylic acid tert-butyl ester] showed a pEC50 of 7.14.
Cc1ncoc1-c1ccc(C(=O)N(C2CC2)C2CCN(C(=O)OC(C)(C)C)CC2)cn1 [Example 13, 4-{Cyclopropyl-[6-(4-methyl-oxazol-5-yl)-pyridine-3-carbonyl]amino}-piperidine-1-carboxylic acid tert-butyl ester] gave a pEC50 of 6.88.
With CC(C)(C)OC(=O)N1CCC(N(C(=O)c2cnc(-c3cnco3)c(F)c2)C2CC2)CC1 [Example 14, 4-[Cyclopropyl-(5-fluoro-6-oxazol-5-yl-pyridine-3-carbonyl)-amino]-piperidine-1-carboxylic acid tert-butyl ester] the pEC50 was 6.84.
In the case of COC(=O)c1ccc(-n2cnc(C(=O)N(C3CC3)C3CCN(C(=O)OC(C)(C)C)CC3)c2)c(F)c1 [Example 15, 4-{Cyclopropyl-[1-(2-fluoro-4-methoxycarbonyl-phenyl)-1H-imidazole-4-carbonyl]-amino}-piperidine-1-carboxylic acid tert-butyl ester], the pEC50 was 6.80.
Work on CC(C)(C)OC(=O)N1CCC(N(C(=O)c2cn(-c3ccc(C#N)cc3F)cn2)C2CC2)CC1 [Example 16, 4-{[1-(4-Cyano-2-fluoro-phenyl)-1H-imidazole-4-carbonyl]-cyclopropyl-amino}-piperidine-1-carboxylic acid tert-butyl ester] yielded a pEC50 of 7.18.
CC(C)(C)OC(=O)N1CCC(N(C(=O)c2cn(-c3ccc(S(C)(=O)=O)cc3)cn2)C2CC2)CC1 [Example 17, 4-{Cyclopropyl-[1-(4-methanesulfonyl-phenyl)-1H-imidazole-4-carbonyl]-amino}-piperidine-1-carboxylic acid tert-butyl ester] showed a pEC50 of 6.17.
CC(C)(C)OC(=O)N1CCC(N(C(=O)c2noc(-c3ccc(C#N)cc3F)n2)C2CC2)CC1 [Example 18, 4-{[5-(4-Cyano-2-fluoro-phenyl)-[1,2,4]oxadiazole-3-carbonyl]-cyclopropyl-amino}-piperidine-1-carboxylic acid tert-butyl ester] was tested, and the pEC50 was 8.30.
With CC(C)(C)OC(=O)N1CCC(N(C(=O)c2noc(-c3ccc(S(C)(=O)=O)cc3F)n2)C2CC2)CC1 [Example 19, 4-{Cyclopropyl-[5-(2-fluoro-4-methanesulfonyl-phenyl)-[1,2,4]oxadiazole-3-carbonyl]-amino}-piperidine-1-carboxylic acid tert-butyl ester] the pEC50 was 7.68.
CC(C)(C)OC(=O)N1CCC(N(C(=O)c2noc(-c3ccc(C#N)c(F)c3)n2)C2CC2)CC1 [Example 20, 4-{[5-(4-Cyano-3-fluoro-phenyl)-[1,2,4]oxadiazole-3-carbonyl]-cyclopropyl-amino}-piperidine-1-carboxylic acid tert-butyl ester] was tested, and the pEC50 was 8.15.
CC(C)(C)OC(=O)N1CCC(N(C(=O)c2noc(-c3ccc(S(C)(=O)=O)c(F)c3)n2)C2CC2)CC1 [Example 21, 4-{Cyclopropyl-[5-(3-fluoro-4-methanesulfonyl-phenyl)-[1,2,4]oxadiazole-3-carbonyl]-amino}-piperidine-1-carboxylic acid tert-butyl ester] gave a pEC50 of 7.48.
With CC(C)(C)OC(=O)N1CCC(N(C(=O)c2nc(-c3ccc(Br)cc3F)no2)C2CC2)CC1 [Example 22, 4-{[3-(4-Bromo-2-fluoro-phenyl)-[1,2,4]oxadiazole-5-carbonyl]-cyclopropyl-amino}-piperidine-1-carboxylic acid tert-butyl ester] the pEC50 was 6.68.

From patent US20140045823A1 (Neurocrine Biosciences, Inc., priority 2012, published 2014)
